Results on 2 compounds are retold here after patent US6365614B1, “Fungicides mixtures” (priority 1997, dated 2002).

The test system of the assay is Plasmopara viticola. Briefly: Curative action against Plasmopara viticola on potted grapevines. The following applies: grapevine leaves, untreated control 73% infection. In kind it is in vivo, Plasmopara viticola on grapevines cv. Müller-Thurgau. The protocol:
Curative action against Plasmopara viticola
Leaves of potted grapevines cv. “Müller-Thurgau” were inoculated with an aqueous zoospore suspension of Plasmopara viticola. The grapevines were subsequently kept in a water-vapor-saturated chamber at 22-24° C. for 48 hours. They were then removed from the chambers and, after they had dried, sprayed to run off point with an aqueous preparation of active compound which had been prepared from a stock solution comprising 10% of active compound, 63% of cyclohexanone and 27% of emulsifier. After the spray coating had dried on, the plants were cultivated for another 5 days in the greenhouse at 20-30° C. After this time, the plants were returned into a humid chamber for 16 hours to accelerate the eruption of sporangiophore. The extent to which the disease had developed on the undersides of the leaves was then determined visually in %.
Evaluation is carried out by determining the infected leaf areas in percent. These percentages are converted into efficacies. The expected efficacies of the active compound mixtures are determined using Colby's formula [R. S. Colby, Weeds 15, 20-22 (1967)] and compared with the observed efficacies. Colby's formula: […]
expected efficacy, expressed in % of the untreated control, when using the mixture of the active compounds A, B and C at the concentrations a, b and c x efficacy, expressed in % of the untreated control, when using active compound A at a concentration of a y efficacy, expressed in % of the untreated control, when using active compound B at a concentration of b z efficacy, expressed in % of the untreated control, when using active compound C at a concentration of c The efficacy(E) is calculated as follows using Abbot's formula: […]
α corresponds to the fungal infection of the treated plants in % and β corresponds to the fungal infection of the untreated (control) plants in % An efficacy of 0 means that the infection level of the treated plants corresponds to that of the untreated control plants; an efficacy of 100 means that the treated plants were not infected.

Where [1] appears, read: 1 ppm active compound in the spray liquor.

On to `Cc1cccc(C)c1N(C(=O)CCl)C1CCOC1=O` (stereo not shown) [II.2, Ofurace], for which the “Efficacy in % of the untreated control” value reads like this: under setting [1], 0%; (4 ppm active compound in the spray liquor) 73%; (16 ppm active compound in the spray liquor) 73%.
Turning to `COCC(=O)N(c1c(C)cccc1C)C(C)C(=O)OC` (stereo not shown) [II.3, metalaxyl], the “Efficacy in % of the untreated control” value under setting [1] is given as 59%.
